Consider 19 compounds from patent US20260285855A1, “HETEROARYL DERIVATIVES AS DDRS INHIBITORS” (CHIESI FARMACEUTICI S.P.A., priority 2023, published 2026).

SMILES strings stand for the structures.

In one assay the target is T1, DDR1 (Homo sapiens, UniProt Q08345).
T1 construct: purchased Carna Biosciences
In words: LanthaScreen Europium Kinase Binding assay, DDR1. The following applies: 5 nM DDR1, 20 nM Kinase Tracer 178, 1 h at rt; Ki from IC50 by Cheng-Prusoff; read-out: Ki DDR1. How it is done:
(§1) DDR1 and DDR2 binding assays were performed using Life Technologies LanthaScreen™ Europium Kinase Binding assay. […] IC50 values were determined in GraphPad Prism 7.0 software, using 4 parameter model: log (inhibitor) vs. response. IC50 values were converted in Ki using the Cheng-Prusoff equation (Ki-IC50/(1+ [Tracer]/Kd).
On the technique in general: Time-resolved FRET reads energy transfer from a long-lived donor to a nearby acceptor.

The next assay addresses T2, DDR2 (Homo sapiens, UniProt Q16832).
T2 construct: purchased Life Technologies
T2 sequence (Q16832 22-855): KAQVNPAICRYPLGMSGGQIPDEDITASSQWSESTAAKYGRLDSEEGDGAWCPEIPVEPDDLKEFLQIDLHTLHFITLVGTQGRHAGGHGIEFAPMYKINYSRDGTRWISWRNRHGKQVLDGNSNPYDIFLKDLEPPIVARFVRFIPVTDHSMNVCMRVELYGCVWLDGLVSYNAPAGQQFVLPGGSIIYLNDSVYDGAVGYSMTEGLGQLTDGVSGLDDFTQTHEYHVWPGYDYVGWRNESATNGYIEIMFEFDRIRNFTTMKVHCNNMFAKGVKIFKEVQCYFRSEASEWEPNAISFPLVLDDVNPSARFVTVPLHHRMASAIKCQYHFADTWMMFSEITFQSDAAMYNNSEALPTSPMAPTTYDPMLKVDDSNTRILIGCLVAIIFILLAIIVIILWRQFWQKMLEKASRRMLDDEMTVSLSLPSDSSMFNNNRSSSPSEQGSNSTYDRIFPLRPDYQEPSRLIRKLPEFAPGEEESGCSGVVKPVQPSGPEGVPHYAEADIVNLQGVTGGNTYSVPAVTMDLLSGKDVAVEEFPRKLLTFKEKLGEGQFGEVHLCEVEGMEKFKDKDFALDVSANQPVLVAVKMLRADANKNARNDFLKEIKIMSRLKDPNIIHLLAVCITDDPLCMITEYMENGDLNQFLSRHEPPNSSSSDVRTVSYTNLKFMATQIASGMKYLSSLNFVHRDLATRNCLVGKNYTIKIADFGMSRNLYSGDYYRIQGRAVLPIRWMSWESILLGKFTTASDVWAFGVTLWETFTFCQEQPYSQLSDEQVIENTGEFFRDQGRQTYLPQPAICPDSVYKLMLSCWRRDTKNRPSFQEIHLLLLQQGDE
In words: LanthaScreen Europium Kinase Binding assay, DDR2. The following applies: 5 nM DDR2, 10 nM Kinase Tracer 178, 1 h at rt; Ki from IC50 by Cheng-Prusoff; read-out: Ki DDR2. How it is done: as §1

T1 sequence (Q08345 19-913): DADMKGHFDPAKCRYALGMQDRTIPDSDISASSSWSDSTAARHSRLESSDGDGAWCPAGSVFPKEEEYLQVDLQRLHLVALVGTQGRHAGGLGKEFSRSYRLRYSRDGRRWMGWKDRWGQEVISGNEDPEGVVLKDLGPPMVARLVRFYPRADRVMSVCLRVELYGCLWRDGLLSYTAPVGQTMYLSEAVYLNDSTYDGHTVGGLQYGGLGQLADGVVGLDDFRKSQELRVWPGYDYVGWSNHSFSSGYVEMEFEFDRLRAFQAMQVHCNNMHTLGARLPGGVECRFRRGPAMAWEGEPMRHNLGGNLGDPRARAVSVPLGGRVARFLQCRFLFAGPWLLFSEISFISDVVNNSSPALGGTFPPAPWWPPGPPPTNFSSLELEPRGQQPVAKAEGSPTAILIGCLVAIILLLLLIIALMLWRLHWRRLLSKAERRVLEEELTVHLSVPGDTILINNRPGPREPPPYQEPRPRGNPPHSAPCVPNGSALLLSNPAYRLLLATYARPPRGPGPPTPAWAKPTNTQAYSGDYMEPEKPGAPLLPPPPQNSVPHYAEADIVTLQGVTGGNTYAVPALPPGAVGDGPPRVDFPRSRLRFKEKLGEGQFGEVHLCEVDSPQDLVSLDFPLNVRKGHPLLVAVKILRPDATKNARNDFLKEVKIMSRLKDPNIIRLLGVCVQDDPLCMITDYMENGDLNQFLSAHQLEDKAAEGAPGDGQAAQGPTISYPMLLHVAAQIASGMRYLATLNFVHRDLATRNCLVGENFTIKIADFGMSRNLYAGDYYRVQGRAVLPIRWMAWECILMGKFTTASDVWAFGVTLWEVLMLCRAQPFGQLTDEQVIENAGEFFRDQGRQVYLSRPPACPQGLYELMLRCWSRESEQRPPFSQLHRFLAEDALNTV

Broadly, the Ki is the dissociation constant of the complex between target and ligand, obtained from inhibition or displacement. Regarding `CN(C(=O)Nc1cccc(CC(F)(F)F)c1)C1CC2(C1)CN(C(=O)c1cnn3ccn(C)c13)C2` [Example 50, 1-methyl-1-(2-(1-methyl-1H-imidazo[1,2-b]pyrazole-7-carbonyl)-2-azaspiro[3.3]heptan-6-yl)-3-(3-(2,2,2-trifluoroethyl)phenyl)urea], the inhibition constant Ki on DDR1 was under 5 nM; on DDR2, 5 to 25 nM.
The corresponding values for `COc1cc(-c2ccc3c(C(=O)N4CC5(CC(N(C)C(=O)Nc6cncc(C(F)(F)F)c6)C5)C4)cnn3c2)ccn1` [Example 236, 1-(2-(6-(2-methoxypyridin-4-yl)pyrazolo[1,5-a]pyridine-3-carbonyl)-2-azaspiro[3.3]heptan-6-yl)-1-methyl-3-(5-(trifluoromethyl)pyridin-3-yl)urea] are under 5 nM and 5 to 25 nM.
As for `CN(C(=O)Nc1cc(C(F)(F)F)ccn1)C1CC2(C1)CN(C(=O)c1cnn3cc(-c4cnn(C)c4)ccc13)C2` [Example 241, 1-methyl-1-(2-(6-(1-methyl-1H-pyrazol-4-yl)pyrazolo[1,5-a]pyridine-3-carbonyl)-2-azaspiro[3.3]heptan-6-yl)-3-(4-(trifluoromethyl)pyridin-2-yl)urea], the values for the Ki at DDR1 and on DDR2 were under 5 nM and 5 to 25 nM, respectively.
The corresponding values for `COc1ccc(OC(F)(F)F)cc1NC(=O)NC1CC2(C1)CN(C(=O)c1cnn3cccnc13)C2` [Example 55, 1-(2-methoxy-5-(trifluoromethoxy)phenyl)-3-(2-(pyrazolo[1,5-a]pyrimidine-3-carbonyl)-2-azaspiro[3.3]heptan-6-yl)urea] are under 5 nM and 5 to 25 nM.
On to `O=C(Nc1cc(C(F)(F)F)ccn1)NC1CC2(C1)CN(C(=O)c1cnn3ccsc13)C2` [Example 59, 1-(2-(pyrazolo[5,1-b]thiazole-7-carbonyl)-2-azaspiro[3.3]heptan-6-yl)-3-(4-(trifluoromethyl)pyridin-2-yl)urea], for which the Ki at DDR1 was under 5 nM; at DDR2, 5 to 25 nM.
As for `Cn1ccn2ncc(C(=O)N3CC4(CC(NC(=O)Nc5cc(C(F)(F)F)ccc5OC5COC5)C4)C3)c12` [Example 126, 1-(2-(1-methyl-1H-imidazo[1,2-b]pyrazole-7-carbonyl)-2-azaspiro[3.3]heptan-6-yl)-3-(2-(oxetan-3-yloxy)-5-(trifluoromethyl)phenyl)urea], the Ki is under 5 nM at DDR1 and 5 to 25 nM on DDR2.
For the compound `Cn1ccn2ncc(C(=O)N3CC4(CC(CC(=O)Nc5cc(OC(F)(F)F)ccc5F)C4)C3)c12` [Example 276, N-(2-fluoro-5-(trifluoromethoxy)phenyl)-2-(2-(1-methyl-1H-imidazo[1,2-b]pyrazole-7-carbonyl)-2-azaspiro[3.3]heptan-6-yl)acetamide], the Ki on DDR1 and on DDR2 was under 5 nM each time.
Take `CN(C(=O)Nc1cncc(C(F)(F)F)c1)C1CC2(C1)CN(C(=O)c1cnn3cc(-c4cccnc4)ccc13)C2` [Example 230, 1-methyl-1-(2-(6-(pyridin-3-yl)pyrazolo[1,5-a]pyridine-3-carbonyl)-2-azaspiro[3.3]heptan-6-yl)-3-(5-(trifluoromethyl)pyridin-3-yl)urea]: the Ki at DDR1 is under 5 nM; on DDR2, 5 to 25 nM.
For `O=C(Nc1cccc(C(F)(F)F)c1)NC1CC2(C1)CN(C(=O)c1cnn3ccsc13)C2` [Example 4, 1-(2-(pyrazolo[5,1-b]thiazole-7-carbonyl)-2-azaspiro[3.3]heptan-6-yl)-3-(3-(trifluoromethyl)phenyl)urea], the Ki on DDR1 and on DDR2 was under 5 nM each time.
Consider `CN(C(=O)Nc1cncc(C(F)(F)F)c1)C1CC2(C1)CN(C(=O)c1cnn3ccccc13)C2` [Example 216, 1-methyl-1-(2-(pyrazolo[1,5-a]pyridine-3-carbonyl)-2-azaspiro[3.3]heptan-6-yl)-3-(5-(trifluoromethyl)pyridin-3-yl)urea], for which the values for the Ki on DDR1 and at DDR2 were under 5 nM and 25 to 100 nM, respectively.
On to `Cc1ccc(OC(F)(F)F)cc1NC(=O)OC1CC2(C1)CN(C(=O)c1cnn3ccn(C)c13)C2` [Example 295, 2-(1-methyl-1H-imidazo[1,2-b]pyrazole-7-carbonyl)-2-azaspiro[3.3]heptan-6-yl(2-methyl-5-(trifluoromethoxy)phenyl)carba-mate], for which the Ki on DDR1 and on DDR2 was under 5 nM throughout.
In the case of `CCOc1ccc(C(F)(F)F)cc1NC(=O)N(C)C1CC2(C1)CN(C(=O)c1cnn3ccn(C)c13)C2` [Example 288, 3-(2-ethoxy-5-(trifluoromethyl)phenyl)-1-methyl-1-(2-(1-methyl-1H-imidazo[1,2-b]pyrazole-7-carbonyl)-2-azaspiro[3.3]heptan-6-yl)urea], the Ki is under 5 nM on DDR1 and 5 to 25 nM at DDR2.
As for `COc1ccc(OC(F)F)cc1NC(=O)NC1CC2(C1)CN(C(=O)c1cnn3ccn(C)c13)C2` [Example 91, 1-(5-(difluoromethoxy)-2-methoxyphenyl)-3-(2-(1-methyl-1H-imidazo[1,2-b]pyrazole-7-carbonyl)-2-azaspiro[3.3]heptan-6-yl)urea], the inhibition constant Ki at DDR1 was under 5 nM; on DDR2 it was 5 to 25 nM.
For `COc1ccc(-c2ccc3c(C(=O)N4CC5(CC(N(C)C(=O)Nc6cncc(C(F)(F)F)c6)C5)C4)cnn3c2)cn1` [Example 253, 1-(2-(6-(6-methoxypyridin-3-yl)pyrazolo[1,5-a]pyridine-3-carbonyl)-2-azaspiro[3.3]heptan-6-yl)-1-methyl-3-(5-(trifluoromethyl)pyridin-3-yl)urea], the inhibition constant Ki on DDR1 was under 5 nM; on DDR2, 5 to 25 nM.
Turning to `CN(C(=O)Nc1cncc(C2CC2)c1)C1CC2(C1)CN(C(=O)c1cnn3ccn(C)c13)C2` [Example 157, 3-(5-cyclopropylpyridin-3-yl)-1-methyl-1-(2-(1-methyl-1H-imidazo[1,2-b]pyrazole-7-carbonyl)-2-azaspiro[3.3]heptan-6-yl)urea], the inhibitory constant (Ki) at DDR1 was under 5 nM; on DDR2, 5 to 25 nM.
On to `CN(C(=O)Nc1cccc(S(F)(F)(F)(F)F)c1)C1CC2(C1)CN(C(=O)c1cnn3ccn(C)c13)C2` [Example 98, 1-methyl-1-(2-(1-methyl-1H-imidazo[1,2-b]pyrazole-7-carbonyl)-2-azaspiro[3.3]heptan-6-yl)-3-(3-(pentafluoro-16-sulfaneyl)phenyl)urea], for which the Ki at DDR1 and at DDR2 was under 5 nM throughout.
As for `CN(C(=O)Nc1ccc(F)c(C(F)(F)F)c1)C1CC2(C1)CN(C(=O)c1cnn3ccn(C)c13)C2` [Example 131, 3-(4-fluoro-3-(trifluoromethyl)phenyl)-1-methyl-1-(2-(1-methyl-1H-imidazo[1,2-b]pyrazole-7-carbonyl)-2-azaspiro[3.3]heptan-6-yl)urea], the inhibition constant Ki is under 5 nM on DDR1 and 5 to 25 nM at DDR2.
The corresponding values for `CN(C(=O)Nc1cncc(C(F)(F)F)c1)C1CC2(C1)CN(c1cnc3[nH]ccc3c1)C2` [Example 220, 1-(2-(1H-pyrrolo[2,3-b]pyridin-5-yl)-2-azaspiro[3.3]heptan-6-yl)-1-methyl-3-(5-(trifluoromethyl)pyridin-3-yl)urea] are 5 to 25 nM and 25 to 100 nM.
With `Cn1ccn2ncc(C(=O)N3CC4(CC(NC(=O)Nc5ccc(Cl)c(C(F)(F)F)c5)C4)C3)c12` [Example 108, 1-(4-chloro-3-(trifluoromethyl)phenyl)-3-(2-(1-methyl-1H-imidazo[1,2-b]pyrazole-7-carbonyl)-2-azaspiro[3.3]heptan-6-yl)urea], the inhibition constant (Ki) is under 5 nM at DDR1 and 5 to 25 nM at DDR2.
